Reference: publication PMC9734143, “An efficient human stem cells derived cardiotoxicity testing platform for testing oncotherapeutic analogues of quercetin and cinnamic acid” (Scientific Reports, 2022)

Tests used:
[1] = system: cardiomyocytes (WJCM and H9C2 cells); test: Cardiotoxicity across parameters as summarised in the discussion (WJCM and H9C2 cells); type: cell-based, human and rat; settings: for overall cardiotoxicity across the parameters analyzed: analogues at Vero IC50 concentration, 24 h; for active mitochondria status in treated cardiomyocytes / cytotoxic effect against cardiomyocytes by MTT, CCK-8 and LDH assay / intracellular calcium level in treated cardiomyocytes: discussion summary, cell model not specified
Text: We investigated the effects of 3-hydroxyflavone (QMJ-2, QMJ-5, and QMJ-6) and cinnamyl sulfonamide-hydroxamate (NMJ-1, NMJ-2, NMJ-3) in WJCM and H9C2 cells using the concentrations reported for non-cancerous Vero cells. The prerequisite for any synthesized drug molecules is that they should be nontoxic to cardiac cells.

[2] = system: WJMSC-derived cardiomyocytes (WJCM); test: MTT and CCK-8 cell viability assays in WJCM; type: cell-based, human; settings: 24 h; analogues at Vero IC50 concentration; Dox 1 µM
Protocol: (§1) Similarly, the toxicity of these compounds in terms of the viability of cells was estimated by using the MTT assay and cell counting kit-8 (CCK-8) assay. For MTT assay, after 24 h of treatments, MTT (5 mg/ml of PBS; HiMedia, India) was added, and cells were incubated for 2 h at 37 °C. The formazan crystals that were formed after the incubation were dissolved using dimethyl sulfoxide (DMSO). For the CCK-8 assay, 10 μL of CCK-8 solution (Boster Biological Technology, Pleasanton, CA, USA) was added to each well and incubated for 2 h at 37 °C. The absorbance for MTT and CCK-8 assay was measured at 570 nm and 450 nm respectively using the EnSight™ Multimode plate reader (Perkin Elmer, MA, USA)[49],[50].

H9C2 cells [3] = test: TMRE mitochondrial membrane potential assay in H9C2 cells; type: cell-based, rat; settings: 24 h; analogues at Vero IC50 concentration
Protocol: (§2) Mitochondrial membrane potential of the cells after drug treatment was detected using tetramethylrhodamine ethyl ester dye (TMRE; Molecular Probes, CA, USA). The cells were incubated with 0.3 µM TMRE dye and incubated at 37 °C for 30 min in dark. Fluorescence intensity of TMRE was measured at excitation and emission of 549 nm and 574 nm respectively via a multimode plate reader.

H9C2 cells [4] = test: Fura-2AM intracellular calcium assay in H9C2 cells; type: cell-based, rat; settings: 24 h; analogues at Vero IC50 concentration
Protocol: (§3) Intracellular calcium flux was measured using the fluorescent radiometric Ca^2+ indicator, Fura-2 acetoxymethyl ester (Fura-2, AM; Invitrogen, Carlsbad, USA). Briefly, after 24 h of treatment, Fura-2AM (1 μmol/L) was added to cells and incubated for 30 min at 37 °C. The intracellular calcium flux was measured at excitation of 340 nm and 380 nm and emission of 510 nm using a multimode plate reader.

[5] = system: cardiac markers (NKX2.5, GATA4, Troponin I, Troponin T, MHCα) in WJCM; test: qRT-PCR gene expression of cardiac-specific markers in WJCM; settings: qRT-PCR; analogues at Vero IC50 concentration
Protocol: Differentiation of WJMSCs was done using a proprietary combination of DNMT and HDAC inhibitors in KO-DMEM/F-12 containing 10% FBS for 48 h. Induction media was replaced with culture media i.e. KO-DMEM/F-12 with 1X GlutaMAX and, 10% FBS after 48 h for 7 days[23].
WJMSC-derived cardiomyocytes (WJCM) and H9C2 were treated with NMJ and QMJ analogues for 24 h. […] To illustrate the toxicity specific to cardiac cells and not a general cytotoxicity, WJMSCs were treated with positive cardiotoxic drugs.
Total ribonucleic acid (RNA) was isolated using RNAiso Plus (TaKaRa, Shiga, Japan) followed by cDNA conversion using PrimeScript™ 1st strand cDNA synthesis kit (TaKaRa, Shiga, Japan). Quantitative reverse transcriptase-polymerase chain reaction (qRT-PCR) was performed by using TB Green™ Premix Ex Taq™ II (Tli RNase H Plus; TaKaRa, Shiga, Japan) for cardiac markers in a QuantStudio™ 5 real-time PCR Systems (Applied Biosystems, USA). All the primers were purchased from Sigma Aldrich, Bangalore, India (Table 1). The relative gene expression was calculated using 2^-∆∆CT and GAPDH, a housekeeping gene was used as endogenous control[52],[53].

H9C2 cells [6] = test: Griess assay (NO release) in H9C2 cells; type: cell-based, rat; settings: 24 h; analogues at Vero IC50 concentration
Protocol: (§4) Nitric oxide (NO) release was estimated using the Griess assay. Briefly, after 24 h of drug treatment, Griess reagent (Sigma Aldrich, MO, USA) was added to cells in equal volume and incubated for 30 min in the dark, and absorbance was taken at 540 nm via multimode plate reader.

[7] = system: WJMSC-derived cardiomyocytes (WJCM); test: Griess assay (NO release) in WJCM; type: cell-based, human; settings: 24 h
Protocol: as §4

[8] = system: WJMSC-derived cardiomyocytes (WJCM); test: LDH release assay in WJCM; type: cell-based, human; settings: 24 h; analogues at Vero IC50 concentration
Protocol: (§5) The experiment was performed as per the manufacturer’s protocol. Absorbance was taken at 490 nm and 680 nm (background signal) using multimode plate reader. LDH activity was calculated by subtracting absorbance taken at 680 nm from 490 nm.

H9C2 cells [9] = test: LDH release assay in H9C2 cells; type: cell-based, rat; settings: 24 h; analogues at Vero IC50 concentration
Protocol: as §5

[10] = system: WJMSC-derived cardiomyocytes (WJCM); test: Fura-2AM intracellular calcium assay in WJCM; type: cell-based, human; settings: 24 h; analogues at Vero IC50 concentration
Protocol: as §3

[11] = system: WJMSC-derived cardiomyocytes (WJCM); test: Intracellular ROS assay in WJCM; type: cell-based, human; settings: 24 h; analogues at Vero IC50 concentration
Protocol: (§6) Generation of ROS was detected using Fluorometric intracellular ROS kit (Sigma Aldrich, MO, USA) as per manufacturer’s protocol. Fluorescence was measured at excitation and emission of 650 nm and 675 nm respectively via multimode plate reader[50],[51].

[12] = system: Vero, a non-cancerous cell line; design: method as in PMID 25824412, PMID 30687400; settings: read-out: IC50 in Vero cells; cited from earlier work
[13] = system: WJMSC-derived cardiomyocytes (WJCM); test: TMRE mitochondrial membrane potential assay in WJCM; type: cell-based, human; settings: 24 h; analogues at Vero IC50 concentration
Protocol: as §2

H9C2 cells [14] = test: MTT cell viability assay in H9C2 cells; type: cell-based, rat; settings: 24 h, analogues at Vero IC50 concentration
Protocol: as §1

H9C2 cells [15] = test: Intracellular ROS assay in H9C2 cells; type: cell-based, rat; settings: 24 h; analogues at Vero IC50 concentration
Protocol: as §6

SMILES | overall cardiotoxicity across the parameters analyzed [1] | active mitochondria status in treated cardiomyocytes [1] | cytotoxic effect against cardiomyocytes by MTT, CCK-8 and LDH assay [1] | intracellular calcium level in treated cardiomyocytes [1] | toxicity / cell viability in WJCM (MTT, CCK-8), result in words [2] | mitochondrial membrane potential in H9C2 cells (TMRE) (H9C2 cells [3]) | intracellular Ca2+ accumulation in H9C2 cells (Fura-2AM) (H9C2 cells [4]) | GATA4 gene expression in WJCM [5] | MHCα gene expression in WJCM [5] | NKX2.5 gene expression in WJCM [5] | Troponin I gene expression in WJCM [5] | NO level in H9C2 cells (Griess) (H9C2 cells [6]) | LDH release in WJCM [8] | LDH release in H9C2 cells (H9C2 cells [9]) | intracellular Ca2+ accumulation in WJCM (Fura-2AM) [10] | ROS activity in WJCM [11] | IC50 [12] [µM] | mitochondrial membrane potential in WJCM (TMRE) [13] | Troponin T gene expression in WJCM, increase [5] | viability of H9C2 cells (MTT), result in words (H9C2 cells [14]) | further results
O=C(/C=C/c1ccc(S(=O)(=O)NCCc2cccs2)cc1)NO [NMJ-2] | do not display significant cardiotoxicity | remains unaffected | no cytotoxic effect | remained low | less toxic | increased mitochondrial membrane potential | decrease in Ca^2+ accumulation | marked upregulation | marked upregulation | significant increase | marked upregulation | elevated NO levels | increase in LDH | increase in LDH | decrease in Ca^2+ accumulation | lowered ROS activity | 8.2 | – | – | – | Troponin T gene expression in WJCM, result in words [5]: milder increase; NO level in WJCM (Griess), result in words ([7]; analogues at Vero IC50 concentration): elevated NO levels
O=C(/C=C/c1ccc(S(=O)(=O)NCc2ccco2)cc1)NO [NMJ-3] | do not display significant cardiotoxicity | remains unaffected | no cytotoxic effect | remained low | less toxic | increased mitochondrial membrane potential | decrease in Ca^2+ accumulation | marked upregulation | marked upregulation | – | marked upregulation | – | no to little change | no to little change | decrease in Ca^2+ accumulation | lowered ROS activity | 15.1 | increased mitochondrial membrane potential | 8–10 fold | increase in viability | decrease of NO level in WJCM (Griess) ([7]; NMJ-3 at 15.1 µM): 12%; decrease in viability of H9C2 cells (MTT) (H9C2 cells [14]; Dox 1 µM): 10–20%; ROS activity in H9C2 cells (H9C2 cells [15]): lowered ROS activity
COc1ccc2c(=O)c(O)c(-c3ccc(C)cc3)oc2c1 [QMJ-6, 3-Hydroxy-7-methoxy-2-(4-methylphenyl)-4H-1-benzopyran-4-one] | do not display significant cardiotoxicity | remains unaffected | no cytotoxic effect | remained low | less toxic | increased mitochondrial membrane potential | decrease in Ca^2+ accumulation | marked upregulation | marked upregulation | significant increase | marked upregulation | elevated NO levels | no to little change | no to little change | decrease in Ca^2+ accumulation | lowered ROS activity | 153 | increased mitochondrial membrane potential | 8–10 fold | increase in viability | ROS activity in H9C2 cells (H9C2 cells [15]): lowered ROS activity
